Source: the supplement of paper PMC10307832

What was measured:
Experiment in all cases: relative viability (nuclei count vs DMSO), 5 days (fraction); higher = more cells survive
BAM7 + Phenformin = compound: CCOC1=CC=CC=C1N=NC2=C(NN(C2=O)C3=NC(=CS3)C4=CC=CC=C4)C [BAM7] + N=C(N)NC(=N)NCCc1ccccc1 [Phenformin] (partner 250 µM)
Summary of the method: (§1)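 Lung cancer cell lines in 1536-well plates were dosed by pin tool the day after seeding, either with one drug alone or with a fixed anchor-drug dose plus five library-drug doses (not always all listed) in √10 steps. After 5 days, cells were fixed and their nuclei stained in one step (final 0.05% Triton X-100, 1% formaldehyde, 1 ug/ml Hoechst), then counted on 4× images. Relative viability is the nuclei count in treated wells divided by that in vehicle wells. Values are medians of duplicate plates.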

[1] = compound: CCn1c(-c2nonc2N)nc2c(C#CC(C)(C)O)ncc(OC[C@H]3CCCNC3)c21 + CS(=O)(=O)CCNCc1ccc(-c2ccc3ncnc(Nc4ccc(OCc5cccc(F)c5)c(Cl)c4)c3c2)o1 [Lapatinib] (partner 2 µM)
Summary of the method: as §1

BAM7 + Vorinostat = compound: CCOC1=CC=CC=C1N=NC2=C(NN(C2=O)C3=NC(=CS3)C4=CC=CC=C4)C [BAM7] + O=C(CCCCCCC(=O)Nc1ccccc1)NO [Vorinostat] (partner 1 µM)
Summary of the method: as §1

[2] = compound: CCn1c(-c2nonc2N)nc2c(C#CC(C)(C)O)ncc(OC[C@H]3CCCNC3)c21 + O=C(CCCCCCC(=O)Nc1ccccc1)NO [Vorinostat] (partner 1 µM)
Summary of the method: as §1

Row | Cell Line | relative viability (BAM7 + Phenformin; first compound 0.5 µM) | relative viability (BAM7 + Phenformin; first compound 5 µM) | relative viability (BAM7 + Phenformin; first compound 15.81 µM) | relative viability (BAM7 + Phenformin; first compound 50 µM) | relative viability ([1]; first compound 0.01 µM) | relative viability ([1]; first compound 0.03162 µM) | relative viability ([1]; first compound 0.1 µM) | relative viability ([1]; first compound 0.3162 µM) | relative viability ([1]; first compound 1 µM) | relative viability (BAM7 + Vorinostat; first compound 0.5 µM) | relative viability (BAM7 + Vorinostat; first compound 5 µM) | relative viability (BAM7 + Vorinostat; first compound 15.81 µM) | relative viability (BAM7 + Vorinostat; first compound 50 µM) | relative viability ([2]; first compound 0.01 µM) | relative viability ([2]; first compound 0.03162 µM) | relative viability ([2]; first compound 0.1 µM) | relative viability ([2]; first compound 0.3162 µM) | relative viability ([2]; first compound 1 µM)
1 | HCC-78 | 0.619 | 0.583 | 0.796 | 0.777 | 0.717 | 0.673 | 0.903 | 0.547 | 0.301 | 0.382 | 0.455 | 0.436 | 0.459 | 0.434 | 0.452 | 0.455 | 0.416 | 0.436
2 | IA-LM | – | – | – | – | 0.713 | 0.922 | 0.887 | 0.532 | 0.289 | 0.874 | 1.03 | 0.389 | 0.553 | 1.04 | 0.961 | 0.953 | 0.859 | 1
3 | NCI-H322M | 0.77 | 0.805 | 0.806 | 0.799 | 0.562 | 0.608 | 0.394 | 0.614 | 0.524 | 0.884 | 0.868 | 1.05 | 0.913 | 0.75 | 0.724 | 0.754 | 0.702 | 0.869
4 | NCI-H3122 | 0.362 | 0.371 | 0.329 | 0.35 | 0.959 | 1.04 | 1.05 | 1.13 | 1 | 0.985 | 0.887 | 1.02 | 1.14 | 1.07 | 1.01 | 1.05 | 1.06 | 0.994
5 | COR-L23 | 0.411 | 0.5 | 0.443 | 0.424 | 0.935 | 0.994 | 0.985 | 0.916 | 1.05 | 0.434 | 0.379 | 0.433 | 0.52 | 0.433 | 0.558 | 0.437 | 0.368 | 0.387
6 | NCI-H2087 | 0.464 | 0.473 | 0.43 | 0.49 | 0.965 | 0.999 | 0.899 | 1.07 | 1.03 | 0.852 | 0.736 | 0.489 | 0.475 | 0.971 | – | 0.706 | 0.517 | 0.96
7 | LC-2-ad | 0.538 | 0.55 | 0.582 | 0.591 | 0.993 | 1.01 | 0.906 | 0.975 | 0.977 | 0.695 | 0.737 | 0.707 | 0.656 | 0.736 | 0.715 | 0.712 | 0.659 | 0.69
8 | NCI-H1915 | 0.377 | 0.374 | 0.405 | 0.382 | 0.981 | 0.889 | 0.956 | 0.927 | 0.973 | 0.487 | 0.564 | 0.537 | 0.515 | 0.57 | 0.526 | 0.474 | 0.513 | 0.5
9 | NCI-H1793 | 0.342 | 0.338 | 0.348 | 0.317 | 0.75 | 0.699 | 0.577 | 0.548 | 0.939 | 0.751 | 0.715 | 0.726 | 1.08 | 0.652 | 0.692 | – | 0.605 | 0.704
10 | NCI-H2023 | 0.446 | 0.393 | 0.37 | 0.411 | 0.74 | 0.792 | 0.769 | 0.689 | 0.953 | 0.635 | 0.577 | 0.605 | 0.589 | 0.615 | 0.642 | 0.58 | 0.394 | 0.488
11 | COR-L 105 | 0.516 | 0.503 | 0.551 | 0.534 | 0.33 | 0.366 | 0.313 | 0.393 | 0.321 | 0.889 | 0.952 | 0.895 | 0.906 | 0.913 | 0.804 | 0.915 | 0.724 | 0.707
12 | NCI-H1792 | 0.333 | 0.219 | 0.274 | 0.369 | 0.897 | 0.859 | 0.862 | 0.757 | 0.871 | – | – | – | – | – | – | – | – | –
13 | ChaGo-K-1 | 0.425 | 0.351 | 0.393 | 0.394 | – | – | – | – | – | 0.627 | 0.787 | 0.701 | 0.742 | 0.758 | 0.757 | 0.777 | 0.724 | 0.776
14 | NCI-H522 | 0.671 | 0.768 | 0.614 | 0.712 | – | – | – | – | – | 0.911 | 0.851 | 0.963 | 0.977 | 0.944 | 0.911 | 0.853 | 0.847 | 0.938
15 | NCI-H1299 | – | – | – | – | 0.927 | 0.967 | 0.998 | 0.947 | 0.982 | – | – | – | – | – | – | – | – | –
16 | NCI-H1648 | – | – | – | – | – | – | – | – | – | 0.283 | 0.6 | 0.408 | 0.348 | 0.591 | 0.418 | 0.365 | 0.367 | 0.315
17 | NCI-H2342 | 0.59 | 0.739 | 0.594 | 0.521 | – | – | – | – | – | 0.72 | 0.736 | 0.709 | 0.8 | 0.713 | 0.647 | 0.579 | 0.724 | 0.782
18 | SW 900 | 0.548 | 0.544 | 0.576 | 0.759 | – | – | – | – | – | – | 0.461 | – | 0.589 | 0.524 | 0.503 | 0.386 | 0.312 | 0.569
19 | A549 | 0.161 | 0.213 | 0.219 | 0.216 | 0.93 | 0.99 | 1.01 | 0.842 | 0.781 | – | – | – | – | – | – | – | – | –
20 | NCI-H1563 | 0.62 | 0.685 | 0.654 | 0.685 | 0.93 | 0.94 | 0.924 | 0.926 | 0.781 | – | – | – | – | – | – | – | – | –
21 | LCLC-103H | 0.334 | 0.354 | 0.336 | 0.327 | – | – | – | – | – | 0.781 | 0.804 | 0.764 | 0.781 | 0.87 | 0.752 | 0.725 | 0.757 | 0.81
22 | NCI-H441 | 0.866 | 1.1 | 0.779 | 0.923 | – | – | – | – | – | 1.1 | 0.607 | 0.762 | 0.773 | 0.786 | 0.85 | 0.937 | 0.614 | 0.663
